# Experimental data published in patent US20070172471A1, “Method for identifying an anti- streptococcal agent and its use for treating streptococcal infections” (Hansa Medical AB, priority 2003, published 2007).
# Peptide text beside a SMILES is read from it.
# System: mice of the C57BL/6 strain
# Assay: not given
# Conditions: thirty minutes after i.v. M1 protein 15 μg/animal, alone or plus peptide 400 μg/animal
row,Molecule,breathing of mice
1,N=C(N)NCCC[C@H](NC(=O)[C@H](Cc1c[nH]cn1)NC(=O)CN)C(=O)N1CCC[C@H]1C(=O)O [Gly-His-Arg-Pro] (H-GHRP-OH),clearly affected

# System: M1 protein-induced release of HBP from PMNs in human blood
# Assay: not given
# Conditions: M1 protein 1 μg/ml, 30 min 37° C., FIG. 2 and FIG. 5B
row,Molecule,effect on M1 protein-induced release of HBP
1,O=c1c(-c2ccc(O)cc2)coc2cc(O)cc(O)c12 [genistein],blocked the release of HBP almost completely
2,pertussis toxin,none of the two components inhibited the release of HBP
3,COc1cc2ncnc(Nc3cccc(Cl)c3)c2cc1OC [AG1478],did not interfere with the secretion of HBP
4,O=S(=O)(NCCNC/C=C/c1ccc(Br)cc1)c1cccc2cnccc12 [H-89],did not interfere with the secretion of HBP
5,CN(C)CCCn1cc(C2=C(c3c[nH]c4ccccc34)C(=O)NC2=O)c2ccccc21 [GF109203],did not interfere with the secretion of HBP
6,COc1ccc2c(c1)CC[C@@H]1[C@@H]2CC[C@]2(C)[C@@H](NCCCCCCN3C(=O)C=CC3=O)CC[C@@H]12 [U-73122],did not interfere with the secretion of HBP
7,COc1cccc(-c2cc(=O)c3ccccc3o2)c1N [PD98059],did not interfere with the secretion of HBP
8,O=C(O)CN(CCOCCOCCN(CC(=O)O)CC(=O)O)CC(=O)O [EGTA],blocked HBP release

# System: PMNs in human blood
# Assay: HBP release in human blood by streptococcal and other PMN-activating components
# Format: cell-based
# Conditions: added to human blood, 30 min 37° C., HBP in supernatant by ELISA, FIG. 1
# Method: HBP release. 100 μl human blood were diluted in PBS to a final volume of 1.0 ml and incubated with various PMNs-activating components for 30 min at 37° C. Cells were centrifuged (300×g for 15 min) and the supernatant was analyzed by sandwich ELISA. In order to quantify the total amount of HBP in blood, cells were lysed with 0.02% (v/v) Triton X-100, and pelleted as described above.
row,Molecule,release of HBP
1,SpeB: streptococcal cysteine proteinase,did not induce HBP release
2,hyaluronic acid,did not induce HBP release
3,lipoteichoic acid,evoked secretion of HBP
4,"CSCC[C@H](NC=O)C(=O)N[C@@H](CC(C)C)C(=O)N[C@@H](Cc1ccccc1)C(=O)O [fMLP, formyl-methionyl-leucyl-phenylalanine]",evoked secretion of HBP
